# Several values for one entry are separate records, joined by “and”; a condition that tells them apart may be missing. Equal entries are not always repeated.
# Legend:
# [1] = system: human osteoclast precursor cells derived from bone marrow; test: osteoclast differentiation assay (medium TRACP 5b at day 7); assay type: cell-based
# Description: The objective of this study is to investigate the effects of selected test compounds selected on resorbing activity of human osteoclasts in vitro. Bone resorption is studied using a model where human osteoclast precursor cells derived from bone marrow are cultured for 7 days on bovine bone slices and allowed to differentiate into bone-resorbing osteoclasts. […] In each test, a baseline group without test compounds is included to obtain a baseline value. […] The test system can also be modified by adding the test compounds at the beginning of the culture period to study if the test compounds affect osteoclast differentiation. Osteoprotegerin is used as a reference inhibitor of osteoclast differentiation in such cultures.
# Appropriate dilutions were made from the stock solution to obtain the desired test concentrations (0.1 nM, 1 nM and 10 nM in osteoclast differentiation assay and 1 nM, 10 nM and 100 nM in osteoclast activity assay).
# human osteoclasts [2] = test: osteoclast activity assay (bone resorption on bovine bone slices, CTX/TRACP 5b); assay type: cell-based; details: for concentration of CTX released from bone collagen into the culture medium: resorption phase days 7-10
# Description: The objective of this study is to investigate the effects of selected test compounds selected on resorbing activity of human osteoclasts in vitro. Bone resorption is studied using a model where human osteoclast precursor cells derived from bone marrow are cultured for 7 days on bovine bone slices and allowed to differentiate into bone-resorbing osteoclasts. At day 7, the culture medium is changed, the test compounds are added, and the formed mature osteoclasts are allowed to resorb bone in an additional 3-day culture period. Tartrate-resistant acid phosphatase isoform 5b activity (TRACP 5b) is measured from the culture medium collected at day 7 as an index of the number of osteoclasts formed in each well during the differentiation period. After the totally 10 days culture period, C-terminal cross-linked telopeptides of type I collagen (CTX) are quantitated from the culture medium as an index of bone resorption. The results are expressed as the resorption index (CTX at day 10/TRACP 5b at day 7), which describes the mean activity of a single osteoclast. In each test, a baseline group without test compounds is included to obtain a baseline value. […] The test system can also be modified by adding the test compounds at the beginning of the culture period to study if the test compounds affect osteoclast differentiation. Osteoprotegerin is used as a reference inhibitor of osteoclast differentiation in such cultures.
# Used herein is a method where osteoclast precursor cells derived from human bone marrow are cultured on bovine bone slices. The cells are first allowed to differentiate into mature bone-resorbing osteoclasts, and the formed osteoclasts are then allowed to resorb bone. The system is ideally suitable for determining the effects of test compounds on bone resorption in vitro. Test compounds are added into the cell cultures after the differentiation period, and their effect on the resorbing activity of mature osteoclasts is determined.
# (§1) The bone resorption assay is performed according to the above described Standard Operation Procedure. Shortly, human bone marrow-derived stem cells are suspended to culture medium and allowed to attach to bovine bone slices. The bone slices are transferred into 96-well tissue culture plates containing culture medium with appropriate amounts of important growth factors favoring osteoclast differentiation, including M-CSF, RANK-ligand and TGF-beta. The cells are incubated in a CO2 incubator in humidified atmosphere of 95% air and 5% carbon dioxide at 37° C. At day 7 when osteoclast differentiation is completed, the culture medium is replaced with culture medium containing conditions favoring osteoclast activity, and the test compounds are added. The cell culture is continued for an additional three days, during which the formed mature osteoclasts are allowed to resorb bone in the presence of vehicle, control inhibitor (E64) or test compounds at different concentrations. Tartrate-resistant acid phosphatase isoform 5b activity (TRACP 5b) is measured from the culture medium collected at day 7 using the BoneTRAP® assay (SBA-Sciences, Oulu, Finland). Medium TRACP 5b activity describes the number of osteoclasts formed in each well during the differentiation period. At the end of the culture period, C-terminal cross-linked telopeptides of type I collagen (CTX) released from the bone slices are quantitated as an index of bone resorption using CrossLaps® for culture assay (Nordic Bioscience, Herlev, Denmark). The results are expressed as the resorption index (CTX at day 10/TRACP 5b at day 7), which describes the mean activity of a single osteoclast. When necessary, the ToxiLight® assay (Cambrex, East Rutherford, N.J., USA) is used to detect cytotoxic effects of test compounds.
# Two separate experiments were performed in this study, an osteoclast differentiation assay and an osteoclast activity assay.
# human osteoclasts [3] = test: cytotoxicity in human osteoclast activity assay (luminescence released from dying cells); details: day 10; for Cytotoxicity, % compared with baseline group: baseline mean = 100%
# Description: as §1
# Two separate experiments were performed in this study, an osteoclast differentiation assay and an osteoclast activity assay. In the osteoclast differentiation assay, osteoclast precursor cells were cultured for 7 days in the presence of the test compound, and TRACP 5b released into the culture medium was determined at day 7 as an index of the number of osteoclasts formed. Cytotoxicity was determined by quantitating the amount of dying cells from the culture medium at day 2. In the osteoclast activity assay, the test compounds were added after osteoclast differentiation was completed at day 7, and the mature osteoclasts were cultured for an additional 3 days, allowing them to resorb bone. […] Medium CTX was measured at day 10 to quantitate bone resorption during days 7-10, and the results are expressed as the resorption index CTX at day 10/TRACP 5b at day 7, which describes the mean resorbing activity of a single osteoclast. Cytotoxicity was determined by quantitating the amount of dying cells from the culture medium at day 10.
# The test compounds were added after osteoclast differentiation was completed at day 7, and the mature osteoclasts were cultured for an additional 3 days, allowing them to resorb bone. […] Medium CTX was measured at day 10 to quantitate bone resorption during days 7-10, and the results are expressed as the resorption index CTX at day 10/TRACP 5b at day 7, which describes the mean osteoclast activity. Cytotoxicity was determined by quantitating the amount of dying cells from the culture medium at day 10.
# [4] = Homo sapiens, Osteoclast, read-out: Resorbing activity, % of activity compared with baseline group
smiles,measurement,setting,value
"C=CC[C@H]1C(=O)C(C)(C)[C@@H](O)CC(=O)O[C@H](c2ccc3sc(C)nc3c2)C[C@@H]2O[C@]2(C)CCC[C@H](C)[C@@H]1O [EPO-477, (1S,3S,7S,10R,11S,12S,16R)-7,11-dihydroxy-3-(2-methyl-benzothiazol-5-yl)-10-(prop-2-en-1-yl)-8,8,12,16-tetramethyl-4,17-dioxabicyclo[14.1.0]heptadecane-5,9-dione]",medium TRACP 5b activity at day 7,"[1]; 0.1 nM, Mean of 6 replicates, in U/L",18.24
same,medium TRACP 5b activity at day 7,"[1]; 0.1 nM, single replicate, in U/L",14.72 and 16.43 and 21.41 and 17.57 and 17.37 and 21.95
same,medium TRACP 5b activity at day 7,"[1]; 1 nM, Mean of 6 replicates, in U/L",8.27
same,medium TRACP 5b activity at day 7,"[1]; 1 nM, single replicate",9.20 (2×) and 8.25 and 7.59 and 7.52 and 7.84
same,medium TRACP 5b activity at day 7,"[1]; 10 nM, Mean of 6 replicates, in U/L",2.45
same,medium TRACP 5b activity at day 7,"[1]; 10 nM, single replicate, in U/L",2.88 and 3.02 and 2.34 and 2.15 and 1.93 and 2.41
same,resorption index CTX at day 10/TRACP 5b at day 7,"human osteoclasts [2]; 1 nM, Mean of 6 replicates",3.31
same,concentration of CTX released from bone collagen into the culture medium,"human osteoclasts [2]; 1 nM, Mean of 6 replicates",60.34 nM
same,concentration of CTX released from bone collagen into the culture medium,"human osteoclasts [2]; 1 nM, single replicate",56.56 nM and 68.03 nM and 54.94 nM and 58.62 nM and 61.84 nM and 62.04 nM
same,resorption index CTX at day 10/TRACP 5b at day 7,"human osteoclasts [2]; 1 nM, single replicate",3.32 and 4.36 and 3.20 and 2.98 and 3.09 and 2.90
same,resorption index CTX at day 10/TRACP 5b at day 7,"human osteoclasts [2]; 10 nM, Mean of 6 replicates",1.14
same,concentration of CTX released from bone collagen into the culture medium,"human osteoclasts [2]; 10 nM, Mean of 6 replicates",20.16 nM
same,concentration of CTX released from bone collagen into the culture medium,"human osteoclasts [2]; 10 nM, single replicate",10.31 nM and 31.82 nM and 15.76 nM and 16.61 nM and 29.41 nM and 17.07 nM
same,resorption index CTX at day 10/TRACP 5b at day 7,"human osteoclasts [2]; 10 nM, single replicate",0.79 and 1.45 and 0.84 and 1.00 and 1.93 and 0.82
same,resorption index CTX at day 10/TRACP 5b at day 7,"human osteoclasts [2]; 100 nM, Mean of 6 replicates",0.78
same,concentration of CTX released from bone collagen into the culture medium,"human osteoclasts [2]; 100 nM, Mean of 6 replicates",13.45 nM
same,concentration of CTX released from bone collagen into the culture medium,"human osteoclasts [2]; 100 nM, single replicate",15.63 nM and 14.51 nM and 11.55 nM and 16.48 nM and 6.70 nM and 15.83 nM
same,resorption index CTX at day 10/TRACP 5b at day 7,"human osteoclasts [2]; 100 nM, single replicate",0.87 and 0.92 and 0.56 and 0.89 and 0.36 and 1.07
same,activity at 0.0025 µM,human osteoclasts [2]; [4],95%
same,activity at 0.005 µM,human osteoclasts [2]; [4],103%
same,activity at 0.0075 µM,human osteoclasts [2]; [4],109%
same,activity at 0.01 µM,human osteoclasts [2]; [4],79%
same,activity at 0.015 µM,human osteoclasts [2]; [4],45%
same,activity at 0.02 µM,human osteoclasts [2]; [4],62%
same,activity at 0.05 µM,human osteoclasts [2]; [4],38%
same,luminescence released from dying cells during the culture period,"human osteoclasts [3]; 1 nM, Mean of 6 replicates",1864
same,luminescence released from dying cells during the culture period,"human osteoclasts [3]; 1 nM, single replicate",2371 and 1802 and 1966 and 1781 and 1685 and 1577
same,"Cytotoxicity, % compared with baseline group",human osteoclasts [3]; 2.5 nM,98%
same,"Cytotoxicity, % compared with baseline group",human osteoclasts [3]; 5 nM,96%
same,"Cytotoxicity, % compared with baseline group",human osteoclasts [3]; 7.5 nM,91%
same,luminescence released from dying cells during the culture period,"human osteoclasts [3]; 10 nM, Mean of 6 replicates",1957
same,"Cytotoxicity, % compared with baseline group",human osteoclasts [3]; 10 nM,96%
same,luminescence released from dying cells during the culture period,"human osteoclasts [3]; 10 nM, single replicate",2193 and 2097 and 2126 and 1815 and 1909 and 1599
same,"Cytotoxicity, % compared with baseline group",human osteoclasts [3]; 15 nM,79%
same,"Cytotoxicity, % compared with baseline group",human osteoclasts [3]; 20 nM,78%
same,"Cytotoxicity, % compared with baseline group",human osteoclasts [3]; 50 nM,85%
same,luminescence released from dying cells during the culture period,"human osteoclasts [3]; 100 nM, Mean of 6 replicates",2666
same,luminescence released from dying cells during the culture period,"human osteoclasts [3]; 100 nM, single replicate",2837 and 2911 and 2428 and 2741 and 2112 and 2964

# — patent US20080146626A1, “USE OF EPOTHILONES IN THE TREATMENT OF OSTEOPOROSIS AND RELATED DISEASES” (priority 2006, published 2008)
